From publication PMC10900215 (JACS Au, 2024)
Several values for one entry are separate records, joined by “and”; a condition that tells them apart may be missing. Identical values can stand only once.

Experiments:
METTL3-14 [1] = biological target: T1, METTL3-14 (Homo sapiens, UniProt Q86U44); test: Cellular degradation assay (Western blot), METTL3 and/or METTL14 (METTL3–14) in MOLM-13; type: cell-based; parameters: METTL3–14 degradation up to 70% of the endogenous level; endogenous in cells; host or cells: MOLM-13, KASUMI-1, THP-1, NOMO-1; settings: MOLM-13, 2 μM, 24 h, Western blot
Description: MOLM-13, NOMO-1, THP-1, Kasumi-1, PC3, and DU145 cell lines were obtained from DSMZ-German Collection of Microorganisms and Cell Cultures GmbH. […] All cell lines were tested negative for mycoplasma contamination (PCR-based assay by Microsynth, Switzerland).
METTL3 (and METTL14) protein degradation was monitored by Western blot. Cells were treated with the indicated concentration of PROTACs or DMSO control (0.1% (v/v)) for 24h, 37 °C with 5% CO2. […] After SDS-PAGE, proteins were transferred to a nitrocellulose membrane, blocked (with 5% milk, 0.5% BSA in TBST buffer), and incubated overnight with primary antibodies. […] Densitometry was performed in Image Studio Lite software and analyzed in GraphPad Prism 9.
Target sequence in this assay (Q86U44 2-580 limits assumed): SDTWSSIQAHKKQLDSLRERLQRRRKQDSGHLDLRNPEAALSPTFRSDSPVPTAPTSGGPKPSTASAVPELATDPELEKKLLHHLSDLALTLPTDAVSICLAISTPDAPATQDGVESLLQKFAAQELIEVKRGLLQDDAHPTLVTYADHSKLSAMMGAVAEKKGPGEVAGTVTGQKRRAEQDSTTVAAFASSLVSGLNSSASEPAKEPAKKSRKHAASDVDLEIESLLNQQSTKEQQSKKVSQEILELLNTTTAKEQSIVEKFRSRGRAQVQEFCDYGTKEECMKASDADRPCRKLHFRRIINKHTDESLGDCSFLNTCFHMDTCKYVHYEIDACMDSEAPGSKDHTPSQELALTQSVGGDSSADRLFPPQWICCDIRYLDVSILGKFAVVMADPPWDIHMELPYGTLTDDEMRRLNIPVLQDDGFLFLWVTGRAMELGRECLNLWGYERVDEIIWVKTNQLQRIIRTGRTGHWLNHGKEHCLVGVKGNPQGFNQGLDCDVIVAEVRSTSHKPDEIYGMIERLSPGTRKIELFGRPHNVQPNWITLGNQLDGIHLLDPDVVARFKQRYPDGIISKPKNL
Target sequence in this assay (Q9HCE5 whole entry partner): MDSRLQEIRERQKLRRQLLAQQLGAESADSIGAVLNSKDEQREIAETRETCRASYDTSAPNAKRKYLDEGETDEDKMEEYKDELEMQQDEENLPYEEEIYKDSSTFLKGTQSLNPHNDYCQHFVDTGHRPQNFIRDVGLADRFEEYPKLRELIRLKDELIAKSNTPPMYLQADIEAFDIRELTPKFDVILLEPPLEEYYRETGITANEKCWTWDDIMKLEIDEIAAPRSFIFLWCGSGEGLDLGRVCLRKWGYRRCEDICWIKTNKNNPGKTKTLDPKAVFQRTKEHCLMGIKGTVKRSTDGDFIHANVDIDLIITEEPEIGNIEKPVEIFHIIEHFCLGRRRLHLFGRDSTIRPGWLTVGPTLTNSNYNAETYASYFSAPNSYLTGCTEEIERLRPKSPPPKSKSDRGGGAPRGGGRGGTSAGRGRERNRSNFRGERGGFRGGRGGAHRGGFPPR

METTL14 = test: Cellular degradation assay (Western blot), METTL14 in MOLM-13; type: cell-based, human; settings: MOLM-13, 24 h, 2 μM compound
Description: (§1) MOLM-13, NOMO-1, THP-1, Kasumi-1, PC3, and DU145 cell lines were obtained from DSMZ-German Collection of Microorganisms and Cell Cultures GmbH. Cells were cultured in RPMI 1640 medium (11875093, Thermo Fisher Scientific) containing 10% FBS (16140071, Thermo Fisher Scientific) and 1% penicillin-streptomycin (15140122, Thermo Fisher Scientific) in 5% CO2 at 37 °C in a humidified incubator, with maintained cell densities at 0.5–1 × 10^6 cells/mL. All cell lines were tested negative for mycoplasma contamination (PCR-based assay by Microsynth, Switzerland).
(§2) METTL3 (and METTL14) protein degradation was monitored by Western blot. Cells were treated with the indicated concentration of PROTACs or DMSO control (0.1% (v/v)) for 24h, 37 °C with 5% CO2. Samples were then collected and lysed with RIPA buffer with added protease inhibitors (11697498001, Roche). After SDS-PAGE, proteins were transferred to a nitrocellulose membrane, blocked (with 5% milk, 0.5% BSA in TBST buffer), and incubated overnight with primary antibodies. The following antibodies were used: GAPDH (no. 2118, Cell Signaling, 1:4000), β-actin (ab8226, Abcam, 1:2000), METTL3 (ab195352, Abcam, 1:1000), and METTL14 (ab220031, Abcam, 1:1000). Membranes were scanned using an LI-COR Odyssey DLx imager after incubation with appropriate secondary antibodies (antimouse IgG IRDye 680RD (926–68072, LI-COR, 1:10000) and goat anti-Rabbit IgG IRDye 800CW (926–32211, LI-COR, 1:10000)). Densitometry was performed in Image Studio Lite software and analyzed in GraphPad Prism 9.

[2] = Cell viability assay (CellTiter-Glo) on MOLM-13; type: cell-based; settings: human, MOLM-13 cells, average of two biological replicates; for viability at 72 h, […]: 2.5 µM
Description: as §1
Cell viability was determined using a CellTiter-Glo luminescent cell viability assay (Promega) based on the detection of ATP according to the manufacturer’s instructions. 100 μL of the reagent was added to each well and incubated for 10 min at room temperature. […] Background luminescence value was obtained from wells containing the CellTiter-Glo reagent and medium without cells. The resulting data was analyzed in GraphPad Prism 9.

METTL3 = biological target: T2, METTL3 (Homo sapiens, UniProt Q86U44); test: Cellular degradation assay (Western blot), METTL3 in MOLM-13; type: cell-based; settings: MOLM-13, 24 h, 2 μM compound
T2 construct: METTL3–14 degradation up to 70% of the endogenous level; endogenous in cells; host or cells: MOLM-13, PC3, DU145
Description: as §1, §2

METTL3-14 [3] = biological target: T1, METTL3-14; test: biochemical; parameters: with the full-length complex, the recombinant complex construct pFastBacDual-StrepII-GFP-TEV-METTL3-His-TEV-METTL14 was expressed; StrepII (N); GFP (N); TEV site (N); made in house; host or cells: baculovirus/Sf9 insect cells; settings: inhibition of catalytic activity of METTL3-14, binary FRET assay
Description: For determining the half maximal inhibitory concentration (IC50) with the full-length complex, the recombinant complex construct pFastBacDual-StrepII-GFP-TEV-METTL3-His-TEV-METTL14 was expressed using the baculovirus/Sf9 insect cell expression system and purified as described previously.[21]
The inhibitory potencies of the PROTACs for METTL3 were quantified by a homogeneous time-resolved fluorescence (HTRF)-based enzyme assay as previously described.[40]
Target sequence in this assay (Q86U44 whole entry): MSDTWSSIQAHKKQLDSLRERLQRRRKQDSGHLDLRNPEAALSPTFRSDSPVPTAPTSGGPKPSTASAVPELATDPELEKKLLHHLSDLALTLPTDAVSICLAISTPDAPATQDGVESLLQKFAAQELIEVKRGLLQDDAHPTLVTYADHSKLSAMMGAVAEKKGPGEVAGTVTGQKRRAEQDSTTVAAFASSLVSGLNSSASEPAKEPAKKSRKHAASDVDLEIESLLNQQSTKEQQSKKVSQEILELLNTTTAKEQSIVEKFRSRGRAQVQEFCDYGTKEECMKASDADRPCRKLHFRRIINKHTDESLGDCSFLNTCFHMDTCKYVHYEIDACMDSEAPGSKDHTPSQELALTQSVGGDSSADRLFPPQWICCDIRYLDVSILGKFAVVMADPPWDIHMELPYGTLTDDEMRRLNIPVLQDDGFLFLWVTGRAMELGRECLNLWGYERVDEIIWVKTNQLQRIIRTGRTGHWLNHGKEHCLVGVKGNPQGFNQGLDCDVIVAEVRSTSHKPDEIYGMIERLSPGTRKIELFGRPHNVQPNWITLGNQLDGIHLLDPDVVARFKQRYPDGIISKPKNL
Target sequence in this assay (Q9HCE5 whole entry, further chain): as the sequence (Q9HCE5 whole entry partner) above

[4] = biological target: T3, ternary complex CRBN/PROTAC/METTL3–14 (Homo sapiens, UniProt Q86U44+Q96SW2); test: FRET-based ternary complex formation assay (TCFA); type: binding; settings: for TCFA amplitude (mean ± SEM): Hook curve amplitude, fraction of the maximum of compound 16; for ECmax (nM) ± SD: PROTAC concentration at the maximum of the signal in the TCFA
T3 construct: methyltransferase domains (MTD) of METTL3 (residues 354–580); His6 (N, cleaved yes); made in house; host or cells: METTL3-MTD/METTL14-MTD: baculovirus/Sf9; CRBN-TBD: E. coli Rosetta (DE3), co-expressed with BirA
Description: For protein expression, suspension cultures of Sf9 cells in […] medium (Thermo Fisher) were infected at a density of 2 × 10^6 mL^–1. […] The complex was further purified by size exclusion chromatography using a Superdex 200 Increase 10/300 GL column (Cytiva) in 20 mM Tris-Cl, pH 8.0, and 200 mM KCl. The complex was aliquoted and flash-frozen in liquid nitrogen and stored at −80 °C until further use.
Ternary complex formation between the PROTACs, METTL3, and CRBN was quantified by a homogeneous time-resolved fluorescence (HTRF)-based enzyme assay. […] Curves of titrations with the PROTACs were plotted in GraphPad Prism 9.5.1 and fitted with a Gaussian function, if appropriate. […] CRBN^TBD-Avi(biotin) was used at a final concentration of 10 nM. […] Anti-GST Eu^3+-labeled antibody (Cisbio, 61GSTKLB) was used at a final concentration of 0.8 nM. The final reaction volume was 20 μL in 50 mM HEPES (pH 7.5), 150 mM NaCl, 0.1% BSA, 100 mM KF. […] The ratio of the emissions [drawing 1] was considered for further analysis. […] The concentrations resulting in the maximum signal (ECmax) and the amplitudes of the Hook curves were determined from the parameters of the Gaussian fit (if appropriate) or as the coordinates of the data-point with the highest TR-FRET signal.
For the ternary complex formation assay (TCFA), one of the protein partners must have a GST-tag and the other a biotin-tag.

T2 sequence (Q86U44 2-580 limits assumed): as the sequence (Q86U44 2-580 limits assumed) above
T2 sequence (Q9HCE5 whole entry partner): as the sequence (Q9HCE5 whole entry partner) above
T3 sequence (Q86U44 354-580): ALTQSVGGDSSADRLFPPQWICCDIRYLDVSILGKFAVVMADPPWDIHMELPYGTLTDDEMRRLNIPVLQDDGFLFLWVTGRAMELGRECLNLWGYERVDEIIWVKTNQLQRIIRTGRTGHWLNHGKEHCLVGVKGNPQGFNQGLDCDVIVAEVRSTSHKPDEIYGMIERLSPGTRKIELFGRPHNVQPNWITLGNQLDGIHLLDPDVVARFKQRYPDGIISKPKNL
T3 sequence (Q9HCE5 107-395 partner limits assumed): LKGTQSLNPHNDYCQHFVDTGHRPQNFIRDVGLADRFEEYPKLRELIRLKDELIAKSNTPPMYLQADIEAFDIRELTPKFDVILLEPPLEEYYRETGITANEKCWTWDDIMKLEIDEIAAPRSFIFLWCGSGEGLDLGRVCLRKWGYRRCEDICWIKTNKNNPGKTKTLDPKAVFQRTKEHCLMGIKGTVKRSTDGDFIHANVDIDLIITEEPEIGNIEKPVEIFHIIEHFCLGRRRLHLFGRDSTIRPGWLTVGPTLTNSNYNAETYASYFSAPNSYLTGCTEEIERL
T3 sequence (Q96SW2 318-442): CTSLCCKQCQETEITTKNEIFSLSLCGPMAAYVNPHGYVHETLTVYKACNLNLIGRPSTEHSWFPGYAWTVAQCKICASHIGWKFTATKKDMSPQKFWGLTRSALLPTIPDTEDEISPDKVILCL

CN1C(=O)CCC(N2C(=O)c3cccc(NCCCCCC(=O)N4CCC(CNc5cc(N6CCC7(CC6)CN(c6cc(F)c(CN8CCC(C)(C)CC8)cc6F)CC(=O)N7)ncn5)CC4)c3C2=O)C1=O (stereo not shown) [me-24]
degradation of METTL3 and/or METTL14 (METTL3-14 [1]): did not show any METTL3–14 degradation

CC1(C)CCN(Cc2cc(F)c(N3CC(=O)NC4(CCN(c5cc(NCCCNC(=O)CCCCCCCCNc6cccc7c6CN(C6CCC(=O)NC6=O)C7=O)ncn5)CC4)C3)cc2F)CC1 (stereo not shown) [Compound 10]
MOLM-13 West. blot at 24h 2 μM comp conc. Degradation (%) of METTL14 (METTL14): 18 ± 16% | viability at 72 h, 10 µM [2]: 86.6% | MOLM-13 West. blot at 24h 2 μM comp conc. Degradation (%) of METTL3 (METTL3): 18 ± 6% | IC50 (METTL3-14 [3]): 66 ± 10 nM | TCFA amplitude (mean ± SEM) [4]: 1.0 ± 0.0 | ECmax (nM) ± SD [4]: 200 ± 110 nM | ECmax ([4]; TCFA, peak of the Hook curve): below 1 μM

CC1(C)CCN(Cc2cc(F)c(N3CC(=O)NC4(CCN(c5cc(NCc6cccc(CNC(=O)CCCCCCCCn7cc(CNc8cccc9c8C(=O)N(C8CCC(=O)NC8=O)C9=O)nn7)c6)ncn5)CC4)C3)cc2F)CC1 (stereo not shown) [Compound 19]
MOLM-13 West. blot at 24h 2 μM comp conc. Degradation (%) of METTL14 (METTL14): 40% and 40 ± 16% | viability at 72 h, 0.6 µM [2]: 104% | viability at 72 h, 1.25 µM [2]: 104% | viability at 72 h, […] [2]: 102% | viability at 72 h, 5 µM [2]: 97.1% | viability at 72 h, 10 µM [2]: 87.6% | MOLM-13 West. blot at 24h 2 μM comp conc. Degradation (%) of METTL3 (METTL3): 33% and 33 ± 17% | IC50 (METTL3-14 [3]): 88 ± 21 nM | TCFA amplitude (mean ± SEM) [4]: 0.9 ± 0.1 | ECmax (nM) ± SD [4]: 920 ± 150 nM

CC1(C)CCN(Cc2cc(F)c(N3CC(=O)NC4(CCN(c5cc(NCc6cn(CCCCCCCCC(=O)Nc7cccc8c7CN(C7CCC(=O)NC7=O)C8=O)nn6)ncn5)CC4)C3)cc2F)CC1 (stereo not shown) [Compound 26]
MOLM-13 West. blot at 24h 2 μM comp conc. Degradation (%) of METTL14 (METTL14): 12 ± 5% | viability at 72 h, 0.6 µM [2]: 97.9% | viability at 72 h, 1.25 µM [2]: 92.6% | viability at 72 h, […] [2]: 91.2% | viability at 72 h, 5 µM [2]: 96.6% | viability at 72 h, 10 µM [2]: 97.3% | MOLM-13 West. blot at 24h 2 μM comp conc. Degradation (%) of METTL3 (METTL3): 13% and 13 ± 30% | IC50 (METTL3-14 [3]): 34 ± 11 nM | TCFA amplitude (mean ± SEM) [4]: 0.8 ± 0.0 | ECmax (nM) ± SD [4]: 190 ± 80 nM

CC1(C)CCN(Cc2cc(F)c(N3CC(=O)NC4(CCN(c5cc(NCC6CCN(C(=O)CCCNc7ccc8c(c7)C(=O)N(C7CCC(=O)NC7=O)C8=O)CC6)ncn5)CC4)C3)cc2F)CC1 (stereo not shown) [Compound 23]
MOLM-13 West. blot at 24h 2 μM comp conc. Degradation (%) of METTL14 (METTL14): 57 ± 8% | viability at 72 h, 0.6 µM [2]: 95.3% | viability at 72 h, 1.25 µM [2]: 93.3% | viability at 72 h, […] [2]: 95.2% | viability at 72 h, 5 µM [2]: 87.3% | viability at 72 h, 10 µM [2]: 78.2% | MOLM-13 West. blot at 24h 2 μM comp conc. Degradation (%) of METTL3 (METTL3): 50% and 50 ± 12% | IC50 (METTL3-14 [3]): 33 ± 12 nM | TCFA amplitude (mean ± SEM) [4]: 1.0 ± 0.1 | ECmax (nM) ± SD [4]: 160 ± 80 nM

CC1(C)CCN(Cc2cc(F)c(N3CC(=O)NC4(CCN(c5cc(NCc6cn(CCCCCCCCCCC(=O)Nc7cccc8c7CN(C7CCC(=O)NC7=O)C8=O)nn6)ncn5)CC4)C3)cc2F)CC1 (stereo not shown) [Compound 27]
MOLM-13 West. blot at 24h 2 μM comp conc. Degradation (%) of METTL14 (METTL14): / (Degradation <10% or stabilization) | viability at 72 h, 0.6 µM [2]: 95.2% | viability at 72 h, 1.25 µM [2]: 88.7% | viability at 72 h, […] [2]: 92.6% | viability at 72 h, 5 µM [2]: 95.5% | viability at 72 h, 10 µM [2]: 90.9% | MOLM-13 West. blot at 24h 2 μM comp conc. Degradation (%) of METTL3 (METTL3): 12% and 12 ± 43% | IC50 (METTL3-14 [3]): 610 ± 230 nM | TCFA amplitude (mean ± SEM) [4]: 0.7 ± 0.0 | ECmax (nM) ± SD [4]: 1100 ± 330 nM

CC1(C)CCN(Cc2cc(F)c(N3CC(=O)NC4(CCN(c5cc(NCc6cccc(CNC(=O)CCn7cc(CNc8cccc9c8C(=O)N(C8CCC(=O)NC8=O)C9=O)nn7)c6)ncn5)CC4)C3)cc2F)CC1 (stereo not shown) [Compound 18]
MOLM-13 West. blot at 24h 2 μM comp conc. Degradation (%) of METTL14 (METTL14): 30 ± 12% | viability at 72 h, 0.6 µM [2]: 101% | viability at 72 h, 1.25 µM [2]: 105% | viability at 72 h, […] [2]: 104% | viability at 72 h, 5 µM [2]: 102% | viability at 72 h, 10 µM [2]: 105% | MOLM-13 West. blot at 24h 2 μM comp conc. Degradation (%) of METTL3 (METTL3): 19 ± 13% | IC50 (METTL3-14 [3]): 14 ± 3 nM | TCFA amplitude (mean ± SEM) [4]: 0.6 ± 0.1 | ECmax (nM) ± SD [4]: 80 ± 0 nM
